Experiments:
Japanese women = test: daily dosing in Japanese women (LH, E2, endometriosis-associated pain, safety); type: in vivo, human; conditions: doses between 50 and 200 mg daily
human GnRH receptor = biological target: T1, human GnRH receptor (Homo sapiens, UniProt P30968); test: affinity for human GnRH receptor; type: binding; conditions: type of constant (Ki/IC50/Kd) not stated
T1 sequence (P30968 1-328): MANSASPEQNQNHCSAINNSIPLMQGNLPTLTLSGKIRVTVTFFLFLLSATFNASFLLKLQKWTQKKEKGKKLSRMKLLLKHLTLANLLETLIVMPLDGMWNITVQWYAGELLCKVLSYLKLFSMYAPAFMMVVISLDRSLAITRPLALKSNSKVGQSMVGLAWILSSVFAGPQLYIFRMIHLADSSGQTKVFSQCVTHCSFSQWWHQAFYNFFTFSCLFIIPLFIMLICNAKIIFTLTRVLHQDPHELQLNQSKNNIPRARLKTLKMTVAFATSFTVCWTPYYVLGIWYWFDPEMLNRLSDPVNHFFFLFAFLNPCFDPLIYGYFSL

[1] = system: various animal models of endometriosis; test: animal models of endometriosis; type: in vivo
[2] = system: human female patients having endometriosis; test: 12-week oral treatment of endometriosis patients grouped by initial serum AMH; serum E2 concentration; type: in vivo
Procedure: In order to investigate the effects of GnRH antagonists, such as compound (I), (II), and pharmaceutically acceptable salts thereof, such as the choline salt thereof (compound (III)), on endometriosis patients presenting with distinct initial values of serum AMH, a series of experiments was conducted in which patients were divided into multiple treatment arms and orally administered either compound (III) or a placebo. Specifically, a series of n=327 human female patients having endometriosis were divided into five groups, and received either placebo, 50 mg/day of compound (III), 75 mg/day of compound (III), 100 mg/day of compound (III), or 200 mg/day of compound (III) by oral delivery. Treatment with the placebo or compound (III) at the doses specified above occurred continuously over a period of 12 weeks. At various time points throughout these experiments, patients were evaluated for their serum E2 concentration. As described herein, an objective of endometriosis therapy utilizing a GnRH antagonist is to suppress serum E2 values to within a range of from about 20 pg/ml to about 50 pg/ml or lower. Alleviation of endometriosis symptoms correlates with a reduction of serum E2, and achieving serum E2 levels that are either within this range or below are indicators of successful endometriosis treatment. To analyze the response of patients presenting with different initial AMH serum concentrations, patients were further divided into groups based on initial AMH serum level. These groups included patients having initial AMH serum concentrations of less than 15 pM, from 15 pM to 35 pM, or greater than 35 pM prior to commencing treatment with the GnRH antagonist.

COc1cc(F)c(-n2c(=O)[nH]c3csc(C(=O)O)c3c2=O)cc1OCc1c(OC)ccc(F)c1F [Compound (II), 3-[2-fluoro-5-(2,3-difluoro-6-methoxybenzyloxy)4-methoxyphenyl]-2,4-dioxo-1,2,3,4-tetrahydrothieno[3,4d]pyrimidine-5-carboxylic acid]
endometriosis-associated pain (Japanese women): significantly reduce
luteinizing hormone (LH) (Japanese women): suppress
safety and tolerability profile (Japanese women): good safety and tolerability profile
β17-estradiol (E2) (Japanese women): suppress
affinity for human GnRH receptor (human GnRH receptor): 27.4 nM
E2 secretion [1]: significantly suppressing
serum LH concentration [1]: significantly suppressing
size of endometriotic lesions [1]: significantly suppressing

COc1cc(F)c(-n2c(=O)[nH]c3csc(C(=O)O)c3c2=O)cc1OCc1c(OC)ccc(F)c1F [compound (III), choline 3-[2-fluoro-5-(2,3-difluoro-6-methoxybenzyloxy)4-methoxyphenyl]-2,4-dioxo-1,2,3,4-tetrahydrothieno[3,4d]pyrimidine-5-carboxylate]
serum E2 concentration ([2]; 50 mg/day, 12-week treatment period, initial AMH serum concentration less than 15 pM (FIG. 1)): achieve a reduction in serum E2 concentration
suppression of serum E2 concentration ([2]; higher dosages, such as 100 mg/day and 200 mg/day, patients with higher initial serum AMH levels (FIG. 3)): generally required for suppression of serum E2 concentration
serum E2 ([2]; various daily doses, oral, 12 weeks, initial serum AMH from 15 pM to 35 pM (FIG. 2)): dose-dependent suppression
serum E2 ([2]; various daily doses, oral, 12 weeks, initial serum AMH greater than 35 pM (FIG. 3)): dose-dependent suppression
serum β17-estradiol (E2) ([2]; various daily doses, oral, 12 weeks, initial serum AMH less than 15 pM (FIG. 1)): dose-dependent suppression

Reference: patent US11980621B2, “Gonadotropin-releasing hormone antagonist dosing regimens for the treatment of endometriosis” (ObsEva S.A., priority 2017, dated 2024)
